# Assay results published in patent US20090062267A1, “L-ALANINE DERIVATIVES AS a5beta1 ANTAGONISTS” (ASTRAZENECA AB, priority 2007, published 2009).
# Target: recombinant human α5β1 (Homo sapiens, UniProt P05556+P08648)
# Assay: In Vitro Binding Assay (a): inhibition of binding of α5β1 integrin to a fragment of human fibronectin (Fn9-10), Origen electrochemiluminescence
# Conditions: geometric mean where tested more than once
# Excerpt: The assay determined the ability of compounds to inhibit binding of α5β1 integrin to a cognate ligand, a fragment of human fibronectin. The assay used Origen technology (IGEN International) to measure the compound activity. Briefly, α5β1 integrin was coated onto epoxy-paramagnetic beads (Dynal Biotech UK, Bromborough, Wirral, CH62 3QL, UK, Catalogue No 140.11) and biotinylated-fibronectin ligand was coupled to strepatividin labeled Tag-NHS-Ester (BioVeris Corporation, Witney, Oxfordshire, OX28 4GE, UK, Catalogue No 110034). The ruthenium-labeled tag emits an electrochemiluminescence signal upon stimulation which is detected by the Origen reader. Thus, interaction of integrin and ligand causes association of bead and tag, and the resulting electrochemiluminescence signal reflects the level of integrin interaction with fibronectin.
# 20 μg of recombinant human α5β1 was coated onto 4×10(7) epoxy-paramagnetic beads according to manufacturers instructions at 4° C. for 24 hours. Integrin coating and corresponding activity was subsequently measured for each batch but typically, 25 ng of coated protein was used per assay well.
# A DNA fragment encoding the domains 9-10 (amino-acids 1325-1509) of human fibronectin (Swiss-Prot Accession No. P02751) was isolated from cDNA libraries using standard molecular biology and PCR cloning techniques. The cDNA fragment was sub-cloned into a pT73.3 expression vector containing a GST-epitope tag (developed at AstraZeneca; Bagnall et al., Protein Expression and Purification, 2003, 27: 1-11). Following expression in E. coli, the expressed protein, termed Fn9-10, was purified using the GST-tag using standard purification techniques. The recombinant Fn9-10 was subsequently biotinylated using a EZ-link Sulfo-NHS-LC-Biotinylation kit (Perbio Science UK Ltd., Cramlington, Northumberland, NE23 1WA, UK, Catalogue No. 21335) and made to give a final concentration of approximately 1 mg/ml. Tag-NHS-Ester was labeled with streptavidin by incubation at room temperature following manufacturers instructions and buffer-exchanged into PBS to give a concentration of 0.5 mg/ml. Immediately prior to the assay, biotinylated-Fn9-10 and Streptavidin-labeled Tag were diluted in Assay Buffer to give a final concentrations of 0.6 ug/ml and 1.5 ug/ml respectively. The Fn9-10 and Tag solutions were then mixed together in equal volumes and incubated on ice for at least 30 minutes prior to the assay.
# Aliquots (20 μl) of each compound dilution were placed into each well of a 384-well round bottomed polypropylene plate (Matrix Technologies, Wilmslow, Cheshire, SK9 3LP, Catalogue No. 4340 384).
# For the assay, 25 ng (20 ul) of a5b1-bead suspension and 40 μl of the Fn9-10/Tag pre-incubated solution were added to each well containing 20 μl of compound or control solution. Assay plates were then incubated at room temperature for a minimum of 6 hours before being analysed on an Origen plate reader. The minimum value was subtracted from all values, and the signal was plotted against compound concentration to generate IC50 data.
# The data in the above table was generated in an assay substantially as described above in relation to Binding Assay (a). Some of the compounds shown in the table were tested more than once in the assay. For those compounds the IC50 value shown is the geometric mean of the measured IC50 values.
# Chain of recombinant human α5β1 (P08648 42-1049): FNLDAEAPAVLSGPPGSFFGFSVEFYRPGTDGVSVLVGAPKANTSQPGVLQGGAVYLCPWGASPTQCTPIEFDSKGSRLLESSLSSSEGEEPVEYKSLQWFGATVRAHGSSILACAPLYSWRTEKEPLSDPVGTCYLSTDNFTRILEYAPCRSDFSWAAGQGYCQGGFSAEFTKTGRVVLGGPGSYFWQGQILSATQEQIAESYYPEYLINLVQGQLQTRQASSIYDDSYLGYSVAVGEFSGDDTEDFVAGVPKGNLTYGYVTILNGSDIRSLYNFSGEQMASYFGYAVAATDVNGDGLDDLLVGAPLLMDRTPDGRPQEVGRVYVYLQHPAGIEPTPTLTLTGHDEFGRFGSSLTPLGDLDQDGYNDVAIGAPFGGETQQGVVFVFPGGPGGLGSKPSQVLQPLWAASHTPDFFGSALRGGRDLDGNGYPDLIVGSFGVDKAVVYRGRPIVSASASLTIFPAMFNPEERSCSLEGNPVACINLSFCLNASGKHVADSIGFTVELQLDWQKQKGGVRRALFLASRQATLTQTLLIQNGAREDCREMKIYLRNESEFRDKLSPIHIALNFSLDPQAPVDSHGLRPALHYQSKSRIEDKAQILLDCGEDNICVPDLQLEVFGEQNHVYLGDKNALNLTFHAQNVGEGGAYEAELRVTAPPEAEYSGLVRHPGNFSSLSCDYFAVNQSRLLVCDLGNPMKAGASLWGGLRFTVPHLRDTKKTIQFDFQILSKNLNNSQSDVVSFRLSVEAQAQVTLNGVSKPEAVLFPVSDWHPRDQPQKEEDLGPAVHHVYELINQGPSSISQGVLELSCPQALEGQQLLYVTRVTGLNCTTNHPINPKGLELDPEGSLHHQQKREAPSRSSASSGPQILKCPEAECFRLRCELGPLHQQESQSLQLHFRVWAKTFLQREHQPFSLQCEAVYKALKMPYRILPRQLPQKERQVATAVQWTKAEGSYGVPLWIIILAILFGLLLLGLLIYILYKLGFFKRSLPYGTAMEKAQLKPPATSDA
# Chain of recombinant human α5β1 (P05556 21-798): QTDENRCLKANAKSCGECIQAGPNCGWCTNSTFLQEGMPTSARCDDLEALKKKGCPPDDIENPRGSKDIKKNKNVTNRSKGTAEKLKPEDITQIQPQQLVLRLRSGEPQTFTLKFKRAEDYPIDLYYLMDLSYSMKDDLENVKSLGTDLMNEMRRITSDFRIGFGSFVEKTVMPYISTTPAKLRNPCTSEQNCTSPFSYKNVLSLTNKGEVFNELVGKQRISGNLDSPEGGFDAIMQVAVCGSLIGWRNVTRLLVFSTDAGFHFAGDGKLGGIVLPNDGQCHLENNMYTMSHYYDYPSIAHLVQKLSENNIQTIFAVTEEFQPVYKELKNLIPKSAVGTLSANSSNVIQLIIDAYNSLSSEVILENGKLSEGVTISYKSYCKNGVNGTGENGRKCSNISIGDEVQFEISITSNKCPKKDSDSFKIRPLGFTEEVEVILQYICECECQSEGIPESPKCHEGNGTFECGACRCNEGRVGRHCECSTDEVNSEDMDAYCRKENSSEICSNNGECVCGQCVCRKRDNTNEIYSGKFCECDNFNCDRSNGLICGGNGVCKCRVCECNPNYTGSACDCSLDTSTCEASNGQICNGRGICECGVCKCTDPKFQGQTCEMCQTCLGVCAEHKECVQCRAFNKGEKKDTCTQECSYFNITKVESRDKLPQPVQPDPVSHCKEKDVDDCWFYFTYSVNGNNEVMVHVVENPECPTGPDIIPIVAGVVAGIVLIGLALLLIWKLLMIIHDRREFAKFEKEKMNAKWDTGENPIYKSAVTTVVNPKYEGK
row,Structure (SMILES),IC50 [nM]
1,"CNc1cccc(CCOc2ccc(C[C@H](NC(=O)c3conc3C)C(=O)O)cc2)n1 [Example 2.2, O-{2-[6-(methylamino)pyridin-2-yl]ethyl}-N-[(3-methylisoxazol-4-yl)carbonyl]-L-tyrosine]",23
2,"CCSc1ncccc1C(=O)N[C@@H](Cc1ccc(OCCc2cccc(NC)n2)cc1)C(=O)O [Example 2.3, N-{[2-(ethylthio)pyridin-3-yl]carbonyl}-O-{2-[6-(methylamino)pyridin-2-yl]ethyl}-L-tyrosine]",31
3,"CNc1cccc(CCOc2ccc(C[C@H](NC(=O)c3ccc(Cl)nc3Cl)C(=O)O)cc2)n1 [Example 2.4, N-[(2,6-dichloropyridin-3-yl)carbonyl]-O-{2-[6-(methylamino)pyridin-2-yl]ethyl}-L-tyrosine]",39
4,"CNc1cccc(CCOc2ccc(C[C@H](NC(=O)c3oc4ccccc4c3C)C(=O)O)cc2)n1 [Example 2.5, O-{2-[6-(methylamino)pyridin-2-yl]ethyl}-N-[(3-methyl-1-benzofuran-2-yl)carbonyl]-L-tyrosine]",80
5,"CNc1cccc(CCOc2ccc(C[C@H](NC(=O)c3cccnc3C)C(=O)O)cc2)n1 [Example 2.6, O-{2-[6-(methylamino)pyridin-2-yl]ethyl}-N-[(2-methylpyridin-3-yl)carbonyl]-L-tyrosine]",34
6,"CNc1cccc(CCOc2ccc(C[C@H](NC(=O)c3ncccc3C)C(=O)O)cc2)n1 [Example 2.7, O-{2-[6-(methylamino)pyridin-2-yl]ethyl}-N-[(3-methylpyridin-2-yl)carbonyl]-L-tyrosine]",131
7,"CNc1cccc(CCOc2ccc(C[C@H](NC(=O)c3cnccc3Cl)C(=O)O)cc2)n1 [Example 2.8, N-[(4-chloropyridin-3-yl)carbonyl]-O-{2-[6-(methylamino)pyridin-2-yl]ethyl}-L-tyrosine]",8
8,"CNc1cccc(CCOc2ccc(C[C@H](NC(=O)c3cccnc3Cl)C(=O)O)cc2)n1 [Example 3.1, N-[(2-chloropyridin-3-yl)carbonyl]-O-{2-[6-(methylamino)pyridin-2-yl]ethyl}-L-tyrosine]",20
9,"CNc1cccc(CCOc2ccc(C[C@H](NC(=O)c3ccc(OC)nc3OC)C(=O)O)cc2)n1 [Example 3.2, N-[(2,6-dimethoxypyridin-3-yl)carbonyl]-O-{2-[6-(methylamino)pyridin-2-yl]ethyl}-L-tyrosine]",352
10,"O=C(N[C@@H](Cc1ccc(OCCc2ccc3c(n2)NCCC3)cn1)C(=O)O)c1sccc1Cl [Example 6, N-[(3-chlorothiophen-2-yl)carbonyl]-3-{5-[2-(5,6,7,8-tetrahydro-1,8-naphthyridin-2-yl)ethoxy]pyridin-2-yl}-L-alanine]",< 1
11,"CNc1cccc(CCOc2ccc(C[C@H](NC(=O)c3sccc3Cl)C(=O)O)nc2)n1 [Example 7, N-[(3-chlorothiophen-2-yl)carbonyl]-3-(5-{2-[6-(methylamino)pyridin-2-yl]ethoxy}pyridin-2-yl)-L-alanine]",21
12,"O=C(N[C@@H](Cc1ccc(CCCc2ccc3c(n2)NCCC3)cn1)C(=O)O)c1sccc1Cl [Example 8, N-[(3-chlorothiophen-2-yl)carbonyl]-3-{5-[3-(5,6,7,8-tetrahydro-1,8-naphthyridin-2-yl)propyl]pyridin-2-yl}-L-alanine]",4
13,"O=C(N[C@@H](Cc1ccc(OCCc2ccc3c(n2)NCCC3)nc1)C(=O)O)c1sccc1Cl [Example 9, N-[(3-chlorothiophen-2-yl)carbonyl]-3-{6-[2-(5,6,7,8-tetrahydro-1,8-naphthyridin-2-yl)ethoxy]pyridin-3-yl}-L-alanine]",7
14,"O=C(N[C@@H](Cc1ccc(CCCc2ccc3c(n2)NCCC3)nc1)C(=O)O)c1sccc1Cl [Example 10, N-[(3-chloro-2-thienyl)carbonyl]-3-{6-[3-(5,6,7,8-tetrahydro-1,8-naphthyridin-2-yl)propyl]pyridin-3-yl}-L-alanine]",2.5

# Results, then the compound that gave them:
row,IC50 [nM],Structure (SMILES)
1,< 1,"O=C(N[C@@H](Cc1ccc(OCCc2ccc3c(n2)NCCO3)cc1)C(=O)O)c1c(Cl)cncc1Cl [Example 4.1, N-[(3,5-dichloropyridin-4-yl)carbonyl]-O-[2-(3,4-dihydro-2H-pyrido[3,2-b][1,4]oxazin-6-yl)ethyl]-L-tyrosine]"
2,51,"O=C(N[C@@H](Cc1ccc(OCCc2ccc3c(n2)NCCO3)cc1)C(=O)O)c1sccc1Cl [Example 4.2, N-[(3-chlorothiophen-2-yl)carbonyl]-O-[2-(3,4-dihydro-2H-pyrido[3,2-b][1,4]oxazin-6-yl)ethyl]-L-tyrosine]"
3,1,"Cc1noc(C)c1C(=O)N[C@@H](Cc1ccc(OCCc2ccc3c(n2)NCCO3)cc1)C(=O)O [Example 4.3, O-[2-(3,4-dihydro-2H-pyrido[3,2-b][1,4]oxazin-6-yl)ethyl]-N-[(3,5-dimethylisoxazol-4-yl)carbonyl]-L-tyrosine]"
4,5,"O=C(N[C@@H](Cc1ccc(OCCc2ccc3c(n2)NCCO3)cc1)C(=O)O)c1ccncc1Cl [Example 4.4, N-[(3-chloropyridin-4-yl)carbonyl]-O-[2-(3,4-dihydro-2H-pyrido[3,2-b][1,4]oxazin-6-yl)ethyl]-L-tyrosine]"
5,4,"Cc1cnccc1C(=O)N[C@@H](Cc1ccc(OCCc2ccc3c(n2)NCCO3)cc1)C(=O)O [Example 4.5, O-[2-(3,4-dihydro-2H-pyrido[3,2-b][1,4]oxazin-6-yl)ethyl]-N-[(3-methylpyridin-4-yl)carbonyl]-L-tyrosine]"
6,42,"COc1cscc1C(=O)N[C@@H](Cc1ccc(OCCc2ccc3c(n2)NCCC3)cc1)C(=O)O [Example 5.1, N-[(4-methoxythiophen-3-yl)carbonyl]-O-[2-(5,6,7,8-tetrahydro-1,8-naphthyridin-2-yl)ethyl]-L-tyrosine]"
7,1,"O=C(N[C@@H](Cc1ccc(OCCc2ccc3c(n2)NCCC3)cc1)C(=O)O)c1sccc1Cl [Example 5.2, N-[(3-chlorothiophen-2-yl)carbonyl]-O-[2-(5,6,7,8-tetrahydro-1,8-naphthyridin-2-yl)ethyl]-L-tyrosine]"
8,94,"Cn1c(C(=O)N[C@@H](Cc2ccc(OCCc3ccc4c(n3)NCCC4)cc2)C(=O)O)c(Cl)c2ccccc21 [Example 5.3, N-[(3-chloro-1-methyl-1H-indol-2-yl)carbonyl]-O-[2-(5,6,7,8-tetrahydro-1,8-naphthyridin-2-yl)ethyl]-L-tyrosine]"
9,2.2,"Cc1noc(C)c1C(=O)N[C@@H](Cc1ccc(CCCc2ccc3c(n2)NCCC3)cc1)C(=O)O [Example 5.4, N-[(3,5-dimethylisoxazol-4-yl)carbonyl]-4-[3-(5,6,7,8-tetrahydro-1,8-naphthyridin-2-yl)propyl]-L-phenylalanine]"
10,< 1,"O=C(N[C@@H](Cc1ccc(OCCc2ccc3c(n2)NCCC3)cc1)C(=O)O)c1c(Cl)cncc1Cl [Example 5.5, N-[(3,5-dichloropyridin-4-yl)carbonyl]-O-[2-(5,6,7,8-tetrahydro-1,8-naphthyridin-2-yl)ethyl]-L-tyrosine]"
11,1,"CCc1sccc1C(=O)N[C@@H](Cc1ccc(OCCc2ccc3c(n2)NCCC3)cc1)C(=O)O [Example 5.6, N-[(2-ethylthiophen-3-yl)carbonyl]-O-[2-(5,6,7,8-tetrahydro-1,8-naphthyridin-2-yl)ethyl]-L-tyrosine]"
